Data on one compound can be found in US20240300927A1, “AMIDES AS CBL-B INHIBITORS” (Genentech, Inc., priority 2021, published 2024).

The test system of this assay is hWB. The assay is described as follows: IL-2 hWB assay. Format: cell-based. The conditions noted are these: Homo sapiens.

SMILES strings stand for the structures.

Regarding `CC(C)[C@H]1CN(C)CCN1Cc1cc(C(=O)Nc2cccc(C3(Cc4nncn4C)CC(F)(F)C3)c2)nc(C2CC2)c1` [Compound 224, (S)-6-cyclopropyl-N-(3-(3,3-difluoro-1-((4-methyl-4H-1,2,4-triazol-3-yl)methyl)cyclobutyl)phenyl)-4-((2-isopropyl-4-methylpiperazin-1-yl)methyl)picolinamide], a half-maximal effect (EC50) was put at 250 nM.
